Test results published in US4774320A, “Synthetic peptide with human interleukin 1 activity” (Sclavo S.p.A., priority 1986, dated 1988).

Experiments:
CTLL-2 cells = assay: Substances tested directly on IL-2-dependent CTLL cells (no splenocyte supernatant; upper part of Table 2); type: cell-based; conditions: dilution 1/10
[1] = system: T cells from the spleen of C3H/HeJ mice; assay: Induction of IL-2 production in ConA-activated spleen T cells; supernatants tested for growth of IL-2-dependent CTLL-2 cells; type: cell-based; conditions: supernatants of splenocytes incubated 48 hours with ConA and substance, dilution 1/10
Procedure: For the purpose of establishing whether the activity of costimulation of the murine thymocytes on the part of the synthetic peptide is due, as in the case of human IL-1, to the induction of the production of IL-2, the following test was carried out.
T cells from the spleen of C3H/HeJ mice, separated on nylon wool as reported by Julius, M. H. et al., Eur. J. Immunol. 3, 645 (1973), are incubated in duplicate for 48 hours at 37° C. in 1 ml of RPMI 1640 medium (GIBCO), supplemented by N-2-hydroxyethylpiperazine N'-2-ethanesulphonic acid (HEPES), L-glutamine, gentamycin, 10% bovine foetal serum and 2-mercaptoethanol (2.5×10^-5 M), in the presence of graduated concentrations (840-420-210 μg/ml) of the synthetic peptide 163-171 and of purified human IL-1B as standard, with the addition of concanavalin A (ConA) as costimulant.
At the end of the period of incubation, the supernatant is separated from the culture and a determination is made of its capacity to promote the growth of CTLL-2 cells dependent upon IL-2 according to the method reported by Gillis S. M. et al. (J. Immunol. 120, 2027 (1978)).
The mitogenic activity of IL-2 on CTLL-2 cells is measured, either by determining the number of cells after 24 hours of culturing or by means of the assessment of the incorporation of tritiated thymidine in the cells. […]

Substance: Human IL-1β: purified human IL-1B standard (Genzyme Boston Mass.)
- IL-2 (mU/ml) (CTLL-2 cells): 1 mU/ml
- Stimulation index + SE of CTLL cells (CTLL-2 cells): 0.93 ± 0.02
- IL-2 (mU/ml) [1]: 38 mU/ml
- Stimulation index + SE of CTLL cells [1]: 15.27 ± 0.88
